Results from patent publication US7754896B2, “Indol-alanine derivatives as selective S1P4-agonists” (Novartis AG, priority 2004, dated 2010).

Target: T1, S1P4 (Homo sapiens, UniProt O95977)
T1 construct: expressed in transfected cells
T1 sequence (O95977 1-384): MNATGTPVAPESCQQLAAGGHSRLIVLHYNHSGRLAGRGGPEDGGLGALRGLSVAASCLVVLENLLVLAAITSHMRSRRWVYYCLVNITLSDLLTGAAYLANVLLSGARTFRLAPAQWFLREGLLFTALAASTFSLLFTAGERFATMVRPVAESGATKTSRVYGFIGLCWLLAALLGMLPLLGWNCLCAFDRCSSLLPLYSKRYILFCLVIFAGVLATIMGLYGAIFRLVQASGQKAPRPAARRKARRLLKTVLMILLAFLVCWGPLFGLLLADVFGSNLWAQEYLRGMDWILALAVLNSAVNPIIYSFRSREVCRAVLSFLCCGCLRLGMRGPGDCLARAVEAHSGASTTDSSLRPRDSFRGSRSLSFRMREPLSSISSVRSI
Assay: EC50 for S1P4 'in this assay' (GTPγS binding or calcium mobilization, not specified)
Assay type: cell-based
Conditions: assay format not specified ('this assay')
Procedure: The selection of the clones to be tested in the GTPγS assay is based on the real time PCR assays. CHO clones expressing large amounts of human S1P4 are used in these experiments. Membrane proteins are prepared as described above. The basic protocol of GTPγ^35S-binding assay used is described in a recent publication (Brinkmann et al. 2002, J. Biol. Chem, 277, 21453) with the modifications described here below. To characterize the GTPγ^35S-binding to membrane proteins from CHO cells expressing S1P, WGA coated PVT beads (SPA-bead, Amersham Biosciences) are used. Because β-rays of GTPγ^35S have […] in water solution, the plates are centrifuged to minimize non-specific effects caused by the non bound GTPγ^35S. The assay is performed in 96-well Optiplates (Packard, Cat. N^o 6005190) in final volume of 225 μl/well. […] The plates are then centrifuged for 10 minutes at 2000 rpm and counted with a TopCount instrument (Packard). […]
CHO cells are plated in black Costar plate (96 or 384 well, 50,000 cells or 12,500 cells, respectively) in a MEM with FCS and cultured for 20-24 h at 37° C. in a CO2 incubator. […] After measuring the baseline for 40 sec, the agonist in HBSS is added and the fluorescence is measured at intervals of 2 sec for 3 to 5 min. […]

EC50: 432 nM
SMILES: CCc1ccccc1-c1cccc2[nH]c(C(=O)NC[C@@H](N)C(=O)O)cc12 [Example 1, 3-(4-(2-Ethylphenyl)-2-carboxamido-indole)-D-alanine]
